Reference: patent US20240132513A1, “BENZAZEPINE DERIVATIVES, COMPOSITIONS, AND METHODS FOR TREATING COGNITIVE IMPAIRMENT” (AGENEBIO, INC., priority 2022, published 2024)
Like-named read-outs stand apart in the source and are kept apart here.

Legend:
α5β3γ2 GABAA R = α5β3γ2 GABAA R (Homo sapiens, UniProt P18507+P31644); experiment: Binding activity on GABAA R: inhibition of [3H]Ro15-1788 binding, α5 containing receptor
Summary of the method: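 Membranes from dexamethasone-induced (0.5 μM, 1 day) Ltk cells stably expressing α5β3γ2 receptors, 0.2 mg/ml protein, incubated with [3H]Ro15-1788 for 1 h at 4 °C in 50 mM KH2PO4/1 mM EDTA/0.2 M KCl, pH 7.4. Nonspecific binding with 10 μM diazepam; bound ligand by GF/B filtration and scintillation counting, triplicates.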

GABAA R (α5β2γ2) = molecular target: T1, GABAA R (α5β2γ2) (Homo sapiens, UniProt P18507+P31644); experiment: Positive allosteric modulator activity: potentiation of EC20 GABA current in oocytes; format: cell-based
T1 construct: expressed in transfected cells
Summary of the method: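 Xenopus oocytes injected with 1 ng α5:β2:γ2 cDNA (1:1:10 by weight), tested day 2, voltage-clamped at −60 mV under MBS superfusion.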

[1] = ranges of the column heads, [3H]Ro15-1788, Ltk cell membranes
[2] = read-out: GABA α5 Functional Data: potentiation
[3] = read-out: GABA α5 Functional Data: potentiation, @ 100 nM, EC20 GABA, ranges of the column heads

α5β3γ2 GABAA R, sequence (P31644 32-462): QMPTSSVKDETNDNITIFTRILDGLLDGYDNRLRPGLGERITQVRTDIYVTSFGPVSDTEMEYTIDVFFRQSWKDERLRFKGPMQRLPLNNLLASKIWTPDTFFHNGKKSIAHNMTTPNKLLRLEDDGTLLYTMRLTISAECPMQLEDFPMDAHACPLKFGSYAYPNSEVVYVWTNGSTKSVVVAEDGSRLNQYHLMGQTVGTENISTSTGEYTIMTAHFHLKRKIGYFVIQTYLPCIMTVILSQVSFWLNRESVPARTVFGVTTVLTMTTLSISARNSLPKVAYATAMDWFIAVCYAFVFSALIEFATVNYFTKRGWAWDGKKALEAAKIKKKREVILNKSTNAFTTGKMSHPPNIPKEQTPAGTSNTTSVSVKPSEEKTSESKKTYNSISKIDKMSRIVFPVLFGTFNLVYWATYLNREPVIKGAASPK
α5β3γ2 GABAA R, sequence (P28472 26-473 partner): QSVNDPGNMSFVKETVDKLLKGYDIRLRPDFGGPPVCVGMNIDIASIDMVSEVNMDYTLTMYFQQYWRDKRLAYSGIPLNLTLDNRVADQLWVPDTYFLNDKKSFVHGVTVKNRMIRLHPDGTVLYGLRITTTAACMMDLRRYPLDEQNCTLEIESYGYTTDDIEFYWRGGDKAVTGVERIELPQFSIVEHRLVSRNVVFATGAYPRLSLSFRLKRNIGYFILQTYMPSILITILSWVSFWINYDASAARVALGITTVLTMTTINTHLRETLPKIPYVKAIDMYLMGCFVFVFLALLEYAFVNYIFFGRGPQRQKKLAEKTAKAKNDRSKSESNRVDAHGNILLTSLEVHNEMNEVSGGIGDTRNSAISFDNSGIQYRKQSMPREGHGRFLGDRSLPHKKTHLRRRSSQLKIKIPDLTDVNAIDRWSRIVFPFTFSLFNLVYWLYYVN
α5β3γ2 GABAA R, sequence (P18507 40-475): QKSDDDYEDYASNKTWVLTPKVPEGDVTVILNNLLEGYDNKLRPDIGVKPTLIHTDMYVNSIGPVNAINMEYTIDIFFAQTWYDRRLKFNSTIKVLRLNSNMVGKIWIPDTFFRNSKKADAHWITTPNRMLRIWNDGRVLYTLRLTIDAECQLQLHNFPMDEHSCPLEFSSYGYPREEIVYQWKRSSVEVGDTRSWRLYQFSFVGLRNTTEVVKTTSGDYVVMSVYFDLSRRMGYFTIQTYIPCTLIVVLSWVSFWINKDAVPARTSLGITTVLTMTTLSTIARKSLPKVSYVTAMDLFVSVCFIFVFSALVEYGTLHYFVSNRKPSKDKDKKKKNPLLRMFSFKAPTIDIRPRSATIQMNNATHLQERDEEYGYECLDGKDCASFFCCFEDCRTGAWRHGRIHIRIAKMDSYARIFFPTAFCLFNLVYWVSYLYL
T1 sequence (P31644 32-462): as the sequence (P31644 32-462) above
T1 sequence (P47870 25-512 partner limits assumed): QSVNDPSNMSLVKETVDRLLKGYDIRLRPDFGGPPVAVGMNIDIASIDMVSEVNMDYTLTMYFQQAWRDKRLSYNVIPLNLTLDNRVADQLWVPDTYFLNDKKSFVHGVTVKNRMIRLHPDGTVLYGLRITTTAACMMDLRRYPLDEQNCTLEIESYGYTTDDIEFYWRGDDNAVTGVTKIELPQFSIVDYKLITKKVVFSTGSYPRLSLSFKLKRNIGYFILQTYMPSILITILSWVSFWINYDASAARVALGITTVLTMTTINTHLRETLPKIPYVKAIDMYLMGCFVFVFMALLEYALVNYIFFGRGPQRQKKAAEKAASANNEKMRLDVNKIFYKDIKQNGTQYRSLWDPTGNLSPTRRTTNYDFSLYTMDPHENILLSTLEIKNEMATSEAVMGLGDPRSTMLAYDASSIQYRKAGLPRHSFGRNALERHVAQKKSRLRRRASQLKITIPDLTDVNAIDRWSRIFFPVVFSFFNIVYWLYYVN
T1 sequence (P18507 40-475): as the sequence (P18507 40-475) above

Compound	Ki (α5β3γ2 GABAA R; [1]) [nM]	activation at 0.1 µM (GABAA R (α5β2γ2); [2]) [%]	Ki (α5β3γ2 GABAA R) [nM]	activation at 0.1 µM (GABAA R (α5β2γ2); [3]) [%]
COC(C)(C)c1noc(-c2ncn3c2Cc2cn(C)nc2-c2cc(Cl)ccc2-3)n1 [Compound 233]	< 100	5 to 20		
COc1ccc2c(c1)-c1nn(C)cc1Cc1c(-c3nc(C4CCOC4)no3)ncn1-2 (stereo not drawn) [Compound 126]			< 100	20 to 50
COc1ccc2c(c1)-c1[nH]ncc1Cc1c(C#CC(C)(C)C)ncn1-2 [Compound 73]			< 100	5 to 20
Cn1cc2c(n1)-c1cc(Cl)ccc1-n1cnc(-c3noc(C(F)(F)F)n3)c1C2 [Compound 144]			< 100	20 to 50
COc1ccc2c(c1)-c1nn(C)cc1Cc1c(-c3nc(C(C)(C)C)no3)ncn1-2 [Compound 118]			< 100	20 to 50
FC(F)(F)c1nc(-c2ncn3c2Cc2cn[nH]c2-c2cc(Cl)ccc2-3)no1 [Compound 85]			< 100	5 to 20
Clc1ccc2c(c1)-c1nn(CC3CC3)cc1Cc1c(-c3ncco3)ncn1-2 [Compound 172]	< 100	5 to 20		
CC(C)c1noc(-c2ncn3c2Cc2cn(Cc4ccccn4)nc2-c2cc(Cl)ccc2-3)n1 [Compound 99]		20 to 50	< 100	
COc1ccc2c(c1)-c1nn(CC3COC3)cc1Cc1c(-c3nc(COC4CCOC4)no3)ncn1-2 (stereo not drawn) [Compound 310]			< 100	20 to 50
COc1ccc2c(c1)-c1[nH]ncc1Cc1c(-c3nc(C(C)C)no3)ncn1-2 [Compound 10]			< 100	20 to 50
Cn1cc2c(n1)-c1cc(Cl)ccc1-n1cnc(-c3cnn(Cc4ccccc4)c3)c1C2 [Compound 163]			< 100	5 to 20
CC(C)c1noc(-c2ncn3c2Cc2cn(Cc4cccnc4)nc2-c2cc(Cl)ccc2-3)n1 [Compound 98]	< 100	5 to 20		
CC(C)OCc1noc(-c2ncn3c2Cc2cn(C)nc2-c2cc(Cl)ccc2-3)n1 [Compound 242]			< 100	20 to 50
Cn1cc2c(n1)-c1cc(Cl)ccc1-n1cnc(-c3cnn(CC4CCCO4)c3)c1C2 (stereo not drawn) [Compound 222]			< 100	5 to 20
CC(C)n1cc2c(n1)-c1cc(Cl)ccc1-n1cnc(-c3noc(C4CC4)n3)c1C2 [Compound 149]			< 100	20 to 50
Cn1cc2c(n1)-c1cc(Cl)ccc1-n1cnc(-c3noc(COC(C)(C)C)n3)c1C2 [Compound 215]			< 100	20 to 50
CCOC(=O)c1ncn2c1Cc1cnoc1-c1cc(Cl)ccc1-2 [Compound 57]	< 100	5 to 20		
CCn1cc2c(n1)-c1cc(OC)ccc1-n1cnc(-c3noc(C(C)C)n3)c1C2 [Compound 156]			< 100	20 to 50
COC(C)(C)c1nc(-c2ncn3c2Cc2cn(C)nc2-c2cc(Cl)ccc2-3)no1 [Compound 214]			< 100	> 50
COc1ccc2c(c1)-c1c(cnn1CC1CCCO1)Cc1c(-c3nc(C(C)C)no3)ncn1-2 (stereo not drawn) [Compound 244]			< 100	5 to 20
COc1ccc2c(c1)-c1nn(CC3CCCO3)cc1Cc1c(-c3noc(COC(C)C)n3)ncn1-2 (stereo not drawn) [Compound 301]			< 100	20 to 50
Cn1cc2c(n1)-c1cc(Cl)ccc1-n1cnc(-c3noc(C4CCOC4)n3)c1C2 (stereo not drawn) [Compound 145]			< 100	5 to 20
COc1ccc2c(c1)-c1nn(C)cc1Cc1c(-c3noc(C4(OC)CC4)n3)ncn1-2 [Compound 203]			< 100	20 to 50
COCc1noc(-c2ncn3c2Cc2cn(CCOC(F)(F)F)nc2-c2cc(OC)ccc2-3)n1 [Compound 315]			< 100	20 to 50
COc1ccc2c(c1)-c1nn(CC3CC3)cc1Cc1c(-c3nc(C(F)(F)F)no3)ncn1-2 [Compound 116]			< 100	5 to 20
COc1ccc(C#Cc2ncn3c2Cc2cn[nH]c2-c2cc(Cl)ccc2-3)cn1 [Compound 52]			< 100	5 to 20
COc1ccc2c(c1)-c1nn(C3CCOC3)cc1Cc1c(-c3noc(COCC(F)(F)F)n3)ncn1-2 (stereo not drawn) [Compound 279]			< 100	20 to 50
CC(C)c1nc(-c2ncn3c2Cc2cn[nH]c2-c2cc(Cl)ccc2-3)no1 [Compound 84]			< 100	5 to 20
COCCn1cc2c(n1)-c1cc(Cl)ccc1-n1cnc(-c3nc(C4CC4)no3)c1C2 [Compound 128]			< 100	5 to 20
Cn1cc2c(n1)-c1cc(Cl)ccc1-n1cnc(-c3nc(C4CC4)no3)c1C2 [Compound 127]			< 100	20 to 50
